Source: patent US20020052295A1, “Diacyl derivatives of propylene diamine having herbicidal activity” (priority 1999, published 2002)

How the values were obtained:
[1] = test system: CHEAL; test: Pre-emergence herbicidal activity on CHEAL (common lambsquarters); type: in vivo, Chenopodium album
Method in brief: (§1)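 Seeds sown on sterilized fertilized topsoil and covered, then compound in organic solvent diluted with 50:50 acetone/water applied to soil surface; greenhouse at 30/21° C. day/night with 0.64 cm overhead irrigation. Percent inhibition versus untreated plants scored about 14 days after treatment; GR80 derived, highest rate typically 1000 g/ha.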

[2] = test system: BRAPP; test: Pre-emergence herbicidal activity on BRAPP (broadleaf signalgrass); type: in vivo, Brachiaria platyphylla
Method in brief: as §1

[3] = test system: DATST; test: Pre-emergence herbicidal activity on DATST (jimsonweed); type: in vivo, Datura stramonium
Method in brief: as §1

[4] = test system: soybeans; test: Field trials, crop selectivity in soybeans; type: in vivo; conditions: pre-emergence rates giving acceptable weed control
[5] = test system: ABUTH; test: Pre-emergence herbicidal activity on ABUTH (velvetleaf); type: in vivo, Abutilon theophrasti
Method in brief: as §1

[6] = test system: rice; conditions: field trials; pre-emergence
[7] = test system: CIRAR; test: Pre-emergence herbicidal activity on CIRAR (canada thistle, seedling); type: in vivo, Cirsium arvense
Method in brief: as §1

[8] = test system: several weed species, predominantly dicotyledonous species; test: Field trials, pre-emergence weed control; type: in vivo; conditions: pre-emergence application
[9] = test system: dicotyledonous species; test: Pre-emergence test (later test), average GR80 on dicotyledonous species; type: in vivo; conditions: average over dicotyledonous species
Description: (§2) All such uses, and the biological activity enabling such uses, are embraced by the term “herbicidal” herein. Tables 15 and 16 summarize results of tests conducted as described below to determine the pre-emergence herbicidal activity, in the form of a GR80 value, of illustrative compounds of this invention. […] Where herbicidal activity was evident but 80% inhibition was not achieved at the highest rate tested (typically 1000 g/ha), an asterisk (*) is shown in the following tables. Herbicidal activity evident in the form of symptoms of phytotoxicity, in the absence of at least 80% inhibition at any rate, is indicated in the tables by “phyto”. A blank cell in the following tables indicates no herbicidal or phytotoxic response at any rate tested.
(§3) The pre-emergence tests were conducted by the following procedure. Topsoil was sieved to pass through a 1.27 cm screen. Fertilizer was added to the topsoil and the mixture was then sterilized by heating. The topsoil mixture was placed in a pot and compacted to a depth of 1.0 to 1.25 cm from the top of the pot. Seeds of each of several monocotyledonous and dicotyledonous annual plant species were placed on top of the soil. […]
(§4) Approximately 14 days after planting and treating, the plants were observed and herbicidal efficacy recorded as percent inhibition by comparison with untreated plants. […]

[10] = test system: AMARE; test: Pre-emergence herbicidal activity on AMARE (redroot pigweed); type: in vivo, Amaranthus retroflexus
Method in brief: as §1

[11] = test system: monocotyledonous and dicotyledonous annual plant species; test: Greenhouse pre-emergence test, all species of the test taken together; type: in vivo
Description: All such uses, and the biological activity enabling such uses, are embraced by the term “herbicidal” herein. […] Where herbicidal activity was evident but 80% inhibition was not achieved at the highest rate tested (typically 1000 g/ha), an asterisk (*) is shown in the following tables. Herbicidal activity evident in the form of symptoms of phytotoxicity, in the absence of at least 80% inhibition at any rate, is indicated in the tables by “phyto”. A blank cell in the following tables indicates no herbicidal or phytotoxic response at any rate tested.
The pre-emergence tests were conducted by the following procedure. Topsoil was sieved to pass through a 1.27 cm screen. Fertilizer was added to the topsoil and the mixture was then sterilized by heating. The topsoil mixture was placed in a pot and compacted to a depth of 1.0 to 1.25 cm from the top of the pot. Seeds of each of several monocotyledonous and dicotyledonous annual plant species were placed on top of the soil. Additional soil was subsequently placed over the seeds to level-fill the pot. A known amount of each test compound dissolved or suspended in an appropriate organic solvent was diluted with a 50:50 mix of acetone and water and applied to the surface of the soil. After treatment the plants were placed in a greenhouse with a 30/21° C. day/night temperature regime where they received 0.64 cm of overhead irrigation. All subsequent watering consisted of a light overhead mist and/or subirrigation as needed for germination and growth.
Pre-emergence herbicidal activity of the compound of Example 5, a racemic mixture of R- and S-enantiomers of N,N′-(1,2-propanediylbis)-3-(trifluoromethyl) benzamide, was compared with that of the individual R- and S-enantiomers, the compounds of Examples 5a and 5b respectively. The procedure was exactly as described above. Rates tested were 1000, 650, 300, 200, 100, 65, 30 and 10 g/ha.
In a greenhouse pre-emergence test conducted according to the procedure described hereinabove, R—N,N′-(1,2-propanediylbis)-3-(trifluoromethyl)benzamide (the compound of Example 5a) was applied at 200 g/ha and acetochlor was applied at 100 g/ha, both individually and in combination.
In the same greenhouse pre-emergence test, R-2-fluoro-3-trifluoromethyl-N-[1-methyl-2-(3-trifluoromethyl)phenylcarbonylamino]ethylbenzamide (the compound of Example 13) was applied at 100 g/ha and acetochlor was applied at 100 g/ha, both individually and in combination.

[12] = test system: ECHCG; test: Pre-emergence herbicidal activity on ECHCG (barnyardgrass); type: in vivo, Echinochloa crus-galli; conditions: racemic mixture vs enantiomers test; rates tested 1000, 650, 300, 200, 100, 65, 30 and 10 g/ha; lowest rate with 80% or greater inhibition
Method in brief: as §1

[13] = test system: corn (maize); test: Field trials, crop selectivity in corn; type: in vivo; conditions: pre-emergence rates giving acceptable weed control
[14] = test system: sorghum; test: Field trials, crop selectivity in sorghum; type: in vivo; conditions: pre-emergence rates giving acceptable weed control
[15] = test system: cotton; conditions: field trials; pre-emergence
[16] = test system: SETFA; test: Pre-emergence herbicidal activity on SETFA (giant foxtail); type: in vivo, Setaria faberi
Method in brief: as §1

[17] = test system: monocotyledonous species; test: Pre-emergence test (later test), GR80 on monocotyledonous species; type: in vivo; conditions: average over monocotyledonous species
Description: as §2, §3, §4

[18] = test system: SORHA; test: Pre-emergence herbicidal activity on SORHA (johnsongrass, seedling); type: in vivo, Sorghum halepense
Method in brief: as §1

[19] = test system: SOLNI; test: Pre-emergence herbicidal activity on SOLNI (black nightshade); type: in vivo, Solanum nigrum
Method in brief: as §1

[20] = test system: POROL; test: Pre-emergence herbicidal activity on POROL (common purslane); type: in vivo, Portulaca oleracea
Method in brief: as §1

[21] = test system: PANMI; test: Pre-emergence herbicidal activity on PANMI (wild proso millet); type: in vivo, Panicum miliaceum
Method in brief: as §1

[22] = test system: DIGSA; test: Pre-emergence herbicidal activity on DIGSA (large crabgrass); type: in vivo, Digitaria sanguinalis
Method in brief: as §1

[23] = test system: PANDI; test: Pre-emergence herbicidal activity on PANDI (fall panicum); type: in vivo, Panicum dichotomiflorum
Method in brief: as §1

[24] = test system: CONAR; test: Pre-emergence herbicidal activity on CONAR (field bindweed); type: in vivo, Convolvulus arvensis
Method in brief: as §1

[25] = test system: SORVU; test: Pre-emergence herbicidal activity on SORVU (shattercane); type: in vivo, Sorghum vulgare; conditions: racemic mixture vs enantiomers test; rates tested 1000, 650, 300, 200, 100, 65, 30 and 10 g/ha; lowest rate with 80% or greater inhibition
Method in brief: as §1

[26] = pre-emergence application, Example 5a 200 g/ha alone
[27] = racemic mixture vs enantiomers test, rates tested 1000, 650, 300, 200, 100, 65, 30 and 10 g/ha, lowest rate with 80% or greater inhibition

C[C@H](CNC(=O)c1cccc(C(F)(F)F)c1)NC(=O)c1cccc(C(F)(F)F)c1 [Example 5a, R—N,N′-(1,2-propanediylbis)-3-(trifluoromethyl)benzamide]
Percent control CHEAL [1, 26]: 100% | Pre-emergence activity (GR80) CHEAL [1, 27]: 65 g/ha | Percent control BRAPP [2, 26]: 15% | Pre-emergence activity (GR80) BRAPP [2, 27]: phyto | Percent control DATST [3, 26]: 41% | Pre-emergence activity (GR80) DATST [3, 27]: 650 g/ha | crop injury, soybeans [4]: not injurious | Percent control ABUTH [5, 26]: 8% | Pre-emergence activity (GR80) ABUTH [5, 27]: 650 g/ha | crop selectivity, rice [6]: not to be adequately selective | Percent control CIRAR [7, 26]: 35% | Pre-emergence activity (GR80) CIRAR [7, 27]: 1000 g/ha | weed control in field trials [8]: acceptable control | average pre-emergence GR80 on dicotyledonous species [9]: 235 g/ha | Percent control AMARE [10, 26]: 100% | Pre-emergence activity (GR80) AMARE [10, 27]: 30 g/ha | herbicidal activity of the combination compared with expectation ([11]; Example 5a 200 g/ha + acetochlor 100 g/ha, at least on ABUTH, DATST, SORHA and PANMI): greater than expected herbicidal activity | number of the 14 species showing >85% control ([11]; Example 5a 200 g/ha in combination with acetochlor 100 g/ha): 11 | number of the 14 species showing >85% control ([11]; Example 5a alone at 200 g/ha): 4 | GR80 values relative to those of the racemic mixture ([11]; typical over species of Tables 19 and 20): about one-half | Pre-emergence activity (GR80) ECHCG [12]: phyto | crop injury, corn (maize) [13]: not injurious | crop injury, sorghum [14]: not injurious | crop selectivity, cotton [15]: not to be adequately selective | Percent control SETFA [16, 26]: 40% | Pre-emergence activity (GR80) SETFA [16, 27]: phyto | pre-emergence GR80 on monocotyledonous species [17]: 711 g/ha | Percent control SORHA [18, 26]: 30% | Pre-emergence activity (GR80) SORHA [18, 27]: phyto | Percent control SOLNI [19, 26]: 100% | Pre-emergence activity (GR80) SOLNI [19, 27]: 200 g/ha | Percent control POROL [20, 26]: 100% | Pre-emergence activity (GR80) PORAL [20, 27]: 30 g/ha | Percent control PANMI [21, 26]: 20% | Pre-emergence activity (GR80) PANMI [21, 27]: 300 g/ha | Percent control DIGSA [22, 26]: 82% | Pre-emergence activity (GR80) DIGSA [22, 27]: 65 g/ha | Percent control PANDI [23, 26]: 55% | Pre-emergence activity (GR80) PANDI [23, 27]: 200 g/ha | Percent control CONAR [24, 26]: 22% | Pre-emergence activity (GR80) CONAR [24, 27]: phyto | Pre-emergence activity (GR80) SORVU [25]: [empty]
